ChEMBL document CHEMBL4765492, “Discovery of GLPG2451, a Novel Once Daily Potentiator for the Treatment of Cystic Fibrosis” (J Med Chem, 2021)
≈ marks a conversion by molar mass, not a printed value. Blank lines part the entries; values can stand above or below the compound they belong to. Calls of active or inactive are those of the source. The calls are words filed in the database; no cut-off is given here.

Assays:
[1] = Unbound clearance in Sprague-Dawley rat at 1 mg/kg, iv; type: ADME, organism-based; settings: in vivo
[2] = molecular target: T1, Nuclear receptor subfamily 1 group I member 2 (Homo sapiens, UniProt O75469); test: Activation of PXR (unknown origin) at 10 uM by CYP450 induction assay relative to rifampicin; type: ADME
T1 sequence (O75469 whole entry): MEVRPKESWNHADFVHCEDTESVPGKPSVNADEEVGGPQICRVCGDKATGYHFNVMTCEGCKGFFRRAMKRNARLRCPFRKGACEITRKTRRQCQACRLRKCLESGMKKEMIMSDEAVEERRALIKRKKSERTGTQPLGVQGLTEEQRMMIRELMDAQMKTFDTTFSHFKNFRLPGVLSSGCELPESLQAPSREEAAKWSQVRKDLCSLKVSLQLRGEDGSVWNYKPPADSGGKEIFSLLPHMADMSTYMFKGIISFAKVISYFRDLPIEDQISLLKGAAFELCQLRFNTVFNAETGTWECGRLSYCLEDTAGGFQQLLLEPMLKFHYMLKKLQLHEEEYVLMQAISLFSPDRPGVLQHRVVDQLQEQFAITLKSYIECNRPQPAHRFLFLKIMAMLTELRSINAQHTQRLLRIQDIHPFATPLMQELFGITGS

[3] = Unbound intrinsic clearance in human liver microsomes; type: ADME, Microsome
[4] = Kinetic aqueous solubility of the compound at pH 7.4; type: physicochemical; settings: buffer, read-out: Kinetic_solubility
[5] = molecular target: T2, Cystic fibrosis transmembrane conductance regulator (Homo sapiens, UniProt P13569, F508DEL); test: Potentiation of CFTR F508del mutant (unknown origin) expressed in human CFBE41o- cells co-expressing YFP incubated for 10 mins by halide potentiator assay; type: cell-based
T2 sequence (P13569 as listed by the source): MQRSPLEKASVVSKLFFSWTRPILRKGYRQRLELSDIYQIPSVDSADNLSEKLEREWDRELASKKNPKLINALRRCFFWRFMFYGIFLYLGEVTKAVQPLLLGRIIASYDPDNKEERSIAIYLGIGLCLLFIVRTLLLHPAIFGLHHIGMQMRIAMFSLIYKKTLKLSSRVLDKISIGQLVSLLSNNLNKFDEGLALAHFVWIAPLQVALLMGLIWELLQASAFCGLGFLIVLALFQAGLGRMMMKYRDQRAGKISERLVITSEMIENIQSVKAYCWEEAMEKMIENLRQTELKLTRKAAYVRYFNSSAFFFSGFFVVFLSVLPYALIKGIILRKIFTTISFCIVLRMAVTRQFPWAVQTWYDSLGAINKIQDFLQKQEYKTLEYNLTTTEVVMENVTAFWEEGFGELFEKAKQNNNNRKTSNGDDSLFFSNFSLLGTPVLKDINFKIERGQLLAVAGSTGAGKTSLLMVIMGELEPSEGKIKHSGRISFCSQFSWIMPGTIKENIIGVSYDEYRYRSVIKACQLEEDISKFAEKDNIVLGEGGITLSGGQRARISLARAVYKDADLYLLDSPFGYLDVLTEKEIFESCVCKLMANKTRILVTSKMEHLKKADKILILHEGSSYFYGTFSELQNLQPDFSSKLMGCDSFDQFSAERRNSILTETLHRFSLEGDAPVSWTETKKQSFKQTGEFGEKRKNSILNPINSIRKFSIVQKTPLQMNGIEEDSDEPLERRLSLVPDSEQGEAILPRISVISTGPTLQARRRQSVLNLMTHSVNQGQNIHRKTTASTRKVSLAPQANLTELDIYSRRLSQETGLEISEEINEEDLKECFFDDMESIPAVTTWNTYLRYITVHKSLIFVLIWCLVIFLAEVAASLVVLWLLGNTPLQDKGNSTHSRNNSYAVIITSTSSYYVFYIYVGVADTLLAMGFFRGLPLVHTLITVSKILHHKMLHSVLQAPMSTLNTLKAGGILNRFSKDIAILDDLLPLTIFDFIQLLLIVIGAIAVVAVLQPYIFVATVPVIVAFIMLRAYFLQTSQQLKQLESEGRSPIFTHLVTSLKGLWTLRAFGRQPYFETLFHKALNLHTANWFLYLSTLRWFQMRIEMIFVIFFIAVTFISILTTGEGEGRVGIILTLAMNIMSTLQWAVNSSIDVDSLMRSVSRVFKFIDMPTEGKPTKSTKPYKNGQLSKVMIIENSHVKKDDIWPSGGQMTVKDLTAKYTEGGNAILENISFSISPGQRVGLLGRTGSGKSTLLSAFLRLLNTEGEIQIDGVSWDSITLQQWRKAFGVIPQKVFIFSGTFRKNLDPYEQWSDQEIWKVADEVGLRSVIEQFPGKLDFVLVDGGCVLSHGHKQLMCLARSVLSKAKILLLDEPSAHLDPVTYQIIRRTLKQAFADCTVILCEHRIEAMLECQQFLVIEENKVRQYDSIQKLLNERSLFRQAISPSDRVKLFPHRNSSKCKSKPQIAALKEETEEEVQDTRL

[6] = Unbound intrinsic clearance in rat liver microsomes; type: ADME, Microsome
[7] = Clearance in Sprague-Dawley rat at 1 mg/kg, iv; type: ADME, organism-based; settings: in vivo
[8] = Volume of distribution at steady state in Sprague-Dawley rat at 1 mg/kg, iv; type: ADME, organism-based; settings: in vivo, read-out: Vdss
[9] = Inhibition of CYP450 (unknown origin); type: ADME; settings: human
[10] = Half life in Sprague-Dawley rat at 1 mg/kg, iv; type: ADME, organism-based; settings: in vivo
[11] = Permeability of compound across apical to basolateral membrane in MDCK cells; type: ADME, cell-based, Canis lupus familiaris; settings: dog, read-out: permeability
[12] = Permeability efflux ratio in MDCK cells; type: ADME, cell-based, Canis lupus familiaris; settings: dog
[13] = Genotoxicity in Salmonella typhimurium; type: toxicity; settings: salmonella enterica subsp. enterica serovar typhimurium
[14] = Half life in Beagle dog at 1 mg/kg, iv; type: ADME, organism-based, Canis lupus familiaris; settings: in vivo
[15] = Thermodynamic solubility of the compound in the FASSIF medium; type: physicochemical; settings: read-out: Therm_solubility
[16] = Toxicity in human assessed as drug tolerability during phase I study
[17] = molecular target: T2, Cystic fibrosis transmembrane conductance regulator; test: Potentiation of CFTR F508del mutant in human HBE cells by trans-epithelial clamp circuit assay; type: cell-based, Primary bronchial epithelial cell
Cytochrome P450 2C9 = Cytochrome P450 2C9 (Homo sapiens, UniProt P11712); test: Inhibition of CYP2C9 (unknown origin); type: ADME
Cytochrome P450 2C9, sequence (P11712 whole entry): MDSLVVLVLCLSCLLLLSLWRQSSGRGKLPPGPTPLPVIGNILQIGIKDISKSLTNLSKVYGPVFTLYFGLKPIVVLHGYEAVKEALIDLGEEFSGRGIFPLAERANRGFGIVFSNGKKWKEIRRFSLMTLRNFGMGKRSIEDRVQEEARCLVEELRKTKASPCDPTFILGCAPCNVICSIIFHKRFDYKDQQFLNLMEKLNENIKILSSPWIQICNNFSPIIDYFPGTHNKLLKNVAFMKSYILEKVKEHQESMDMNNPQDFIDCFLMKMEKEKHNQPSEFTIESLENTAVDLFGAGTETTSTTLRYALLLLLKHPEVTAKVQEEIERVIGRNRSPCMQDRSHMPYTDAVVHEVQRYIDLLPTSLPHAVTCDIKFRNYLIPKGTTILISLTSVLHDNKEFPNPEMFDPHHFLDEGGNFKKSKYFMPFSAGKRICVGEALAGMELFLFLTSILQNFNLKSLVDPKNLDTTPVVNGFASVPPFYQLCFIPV

[18] = Half life in Cynomolgus monkey at 1 mg/kg, iv; type: ADME, organism-based, Macaca fascicularis; settings: in vivo
[19] = Clearance in Cynomolgus monkey at 1 mg/kg, iv; type: ADME, organism-based, Macaca fascicularis; settings: in vivo
[20] = Unbound clearance in Beagle dog at 1 mg/kg, iv; type: ADME, organism-based, Canis lupus familiaris; settings: in vivo
[21] = Unbound intrinsic clearance in dog liver microsomes; type: ADME, Canis lupus familiaris, Microsome
[22] = Oral bioavailability Cynomolgus monkey at 1 mg/kg, […]; type: ADME, organism-based, Macaca fascicularis; settings: in vivo
Cytochrome P450 3A4 = Cytochrome P450 3A4 (Homo sapiens, UniProt P08684); test: Inhibition of CYP3A4 (unknown origin); type: ADME
Cytochrome P450 3A4, sequence (P08684 whole entry): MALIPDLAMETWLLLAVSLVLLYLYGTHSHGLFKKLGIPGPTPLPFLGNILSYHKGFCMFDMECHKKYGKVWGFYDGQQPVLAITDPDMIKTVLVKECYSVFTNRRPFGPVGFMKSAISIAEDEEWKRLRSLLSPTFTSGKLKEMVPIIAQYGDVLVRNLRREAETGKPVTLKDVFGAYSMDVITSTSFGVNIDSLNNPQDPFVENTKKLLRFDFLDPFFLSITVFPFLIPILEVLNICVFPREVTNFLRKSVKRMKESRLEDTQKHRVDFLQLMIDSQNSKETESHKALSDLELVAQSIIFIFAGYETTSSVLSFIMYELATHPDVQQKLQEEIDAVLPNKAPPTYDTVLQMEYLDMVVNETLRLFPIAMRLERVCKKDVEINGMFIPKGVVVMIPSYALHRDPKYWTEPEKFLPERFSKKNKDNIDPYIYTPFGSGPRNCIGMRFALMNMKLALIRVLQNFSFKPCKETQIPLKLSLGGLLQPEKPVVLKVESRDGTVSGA

[23] = molecular target: Voltage-gated inwardly rectifying potassium channel KCNH2 (Homo sapiens, UniProt Q12809); test: Inhibition of human ERG by manual patch clamp assay
Voltage-gated inwardly rectifying potassium channel KCNH2, sequence (Q12809 whole entry): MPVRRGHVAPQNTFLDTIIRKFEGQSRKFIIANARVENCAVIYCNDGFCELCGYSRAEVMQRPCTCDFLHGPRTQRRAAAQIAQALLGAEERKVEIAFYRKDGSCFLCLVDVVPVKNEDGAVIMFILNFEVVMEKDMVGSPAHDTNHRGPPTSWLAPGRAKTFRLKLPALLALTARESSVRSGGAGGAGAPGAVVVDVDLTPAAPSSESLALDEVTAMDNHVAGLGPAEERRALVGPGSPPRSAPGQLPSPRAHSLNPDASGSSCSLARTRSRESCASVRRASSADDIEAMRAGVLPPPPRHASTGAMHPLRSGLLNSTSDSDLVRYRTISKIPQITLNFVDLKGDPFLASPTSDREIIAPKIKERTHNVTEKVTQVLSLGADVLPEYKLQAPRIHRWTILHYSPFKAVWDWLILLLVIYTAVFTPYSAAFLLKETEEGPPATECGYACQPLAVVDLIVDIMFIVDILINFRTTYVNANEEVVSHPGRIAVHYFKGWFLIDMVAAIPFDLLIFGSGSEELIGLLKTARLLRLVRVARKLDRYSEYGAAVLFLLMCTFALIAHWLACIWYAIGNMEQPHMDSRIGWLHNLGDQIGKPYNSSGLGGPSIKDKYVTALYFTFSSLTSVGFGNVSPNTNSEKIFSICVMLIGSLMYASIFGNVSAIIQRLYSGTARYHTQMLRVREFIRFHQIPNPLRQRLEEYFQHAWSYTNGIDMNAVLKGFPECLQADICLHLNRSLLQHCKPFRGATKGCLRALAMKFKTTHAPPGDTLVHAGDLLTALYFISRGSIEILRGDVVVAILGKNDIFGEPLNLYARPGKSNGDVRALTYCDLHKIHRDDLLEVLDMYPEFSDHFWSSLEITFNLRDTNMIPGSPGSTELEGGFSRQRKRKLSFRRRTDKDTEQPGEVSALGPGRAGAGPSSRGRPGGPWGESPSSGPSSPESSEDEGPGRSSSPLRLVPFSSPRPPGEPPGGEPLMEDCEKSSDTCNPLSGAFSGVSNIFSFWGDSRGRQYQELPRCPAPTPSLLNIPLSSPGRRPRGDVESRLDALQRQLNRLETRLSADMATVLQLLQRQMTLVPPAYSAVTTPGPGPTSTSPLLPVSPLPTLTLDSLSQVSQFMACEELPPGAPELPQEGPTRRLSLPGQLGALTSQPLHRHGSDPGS

[24] = Unbound clearance in Cynomolgus monkey at 1 mg/kg, iv; type: ADME, organism-based, Macaca fascicularis; settings: in vivo
[25] = Unbound intrinsic clearance in monkey liver microsomes; type: ADME, Macaca mulatta, Microsome; settings: rhesus monkey
Cytochrome P450 2D6 = Cytochrome P450 2D6 (Homo sapiens, UniProt P10635); test: Inhibition of CYP2D6 (unknown origin); type: ADME
[26] = Volume of distribution at steady state in Beagle dog at 1 mg/kg, iv; type: ADME, organism-based, Canis lupus familiaris; settings: in vivo, read-out: Vdss
Cytochrome P450 1A2 = molecular target: T3, Cytochrome P450 1A2 (Homo sapiens, UniProt P05177); test: Inhibition of CYP1A2 (unknown origin); type: ADME
T3 sequence (P05177 whole entry): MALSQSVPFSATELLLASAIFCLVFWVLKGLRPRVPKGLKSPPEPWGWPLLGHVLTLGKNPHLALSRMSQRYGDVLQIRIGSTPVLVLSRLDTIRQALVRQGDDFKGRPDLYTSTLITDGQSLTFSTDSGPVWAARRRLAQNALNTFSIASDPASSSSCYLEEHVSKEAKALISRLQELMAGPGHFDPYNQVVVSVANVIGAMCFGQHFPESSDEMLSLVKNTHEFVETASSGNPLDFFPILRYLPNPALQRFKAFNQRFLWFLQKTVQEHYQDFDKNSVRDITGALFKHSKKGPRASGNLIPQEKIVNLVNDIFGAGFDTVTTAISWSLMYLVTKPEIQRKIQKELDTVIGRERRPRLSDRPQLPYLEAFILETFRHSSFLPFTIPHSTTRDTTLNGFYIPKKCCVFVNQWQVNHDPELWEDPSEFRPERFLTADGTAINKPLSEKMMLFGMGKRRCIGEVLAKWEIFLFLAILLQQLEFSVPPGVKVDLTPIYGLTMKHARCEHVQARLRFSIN

[27] = Volume of distribution at steady state in Cynomolgus monkey at 1 mg/kg, iv; type: ADME, organism-based, Macaca fascicularis; settings: in vivo, read-out: Vdss
Cytochrome P450 2C19 = Cytochrome P450 2C19 (Homo sapiens, UniProt P33261); test: Inhibition of CYP2C19 (unknown origin); type: ADME
[28] = Clearance in Beagle dog at 1 mg/kg, iv; type: ADME, organism-based, Canis lupus familiaris; settings: in vivo
[29] = Oral bioavailability in Beagle dog at 1 mg/kg; type: ADME, organism-based, Canis lupus familiaris; settings: in vivo
[30] = system: Cystic fibrosis transmembrane conductance regulator (Homo sapiens), P13569 [G551D]; test: Potentiation of CFTR G551D mutant (unknown origin) expressed in human HEK293 cells co-expressing YFP incubated for 10 mins by halide potentiator assay relative to control; type: cell-based; settings: filed as activator
Cystic fibrosis transmembrane conductance regulator (Homo sapiens), P13569 [G551D], sequence (P13569 whole entry G551D): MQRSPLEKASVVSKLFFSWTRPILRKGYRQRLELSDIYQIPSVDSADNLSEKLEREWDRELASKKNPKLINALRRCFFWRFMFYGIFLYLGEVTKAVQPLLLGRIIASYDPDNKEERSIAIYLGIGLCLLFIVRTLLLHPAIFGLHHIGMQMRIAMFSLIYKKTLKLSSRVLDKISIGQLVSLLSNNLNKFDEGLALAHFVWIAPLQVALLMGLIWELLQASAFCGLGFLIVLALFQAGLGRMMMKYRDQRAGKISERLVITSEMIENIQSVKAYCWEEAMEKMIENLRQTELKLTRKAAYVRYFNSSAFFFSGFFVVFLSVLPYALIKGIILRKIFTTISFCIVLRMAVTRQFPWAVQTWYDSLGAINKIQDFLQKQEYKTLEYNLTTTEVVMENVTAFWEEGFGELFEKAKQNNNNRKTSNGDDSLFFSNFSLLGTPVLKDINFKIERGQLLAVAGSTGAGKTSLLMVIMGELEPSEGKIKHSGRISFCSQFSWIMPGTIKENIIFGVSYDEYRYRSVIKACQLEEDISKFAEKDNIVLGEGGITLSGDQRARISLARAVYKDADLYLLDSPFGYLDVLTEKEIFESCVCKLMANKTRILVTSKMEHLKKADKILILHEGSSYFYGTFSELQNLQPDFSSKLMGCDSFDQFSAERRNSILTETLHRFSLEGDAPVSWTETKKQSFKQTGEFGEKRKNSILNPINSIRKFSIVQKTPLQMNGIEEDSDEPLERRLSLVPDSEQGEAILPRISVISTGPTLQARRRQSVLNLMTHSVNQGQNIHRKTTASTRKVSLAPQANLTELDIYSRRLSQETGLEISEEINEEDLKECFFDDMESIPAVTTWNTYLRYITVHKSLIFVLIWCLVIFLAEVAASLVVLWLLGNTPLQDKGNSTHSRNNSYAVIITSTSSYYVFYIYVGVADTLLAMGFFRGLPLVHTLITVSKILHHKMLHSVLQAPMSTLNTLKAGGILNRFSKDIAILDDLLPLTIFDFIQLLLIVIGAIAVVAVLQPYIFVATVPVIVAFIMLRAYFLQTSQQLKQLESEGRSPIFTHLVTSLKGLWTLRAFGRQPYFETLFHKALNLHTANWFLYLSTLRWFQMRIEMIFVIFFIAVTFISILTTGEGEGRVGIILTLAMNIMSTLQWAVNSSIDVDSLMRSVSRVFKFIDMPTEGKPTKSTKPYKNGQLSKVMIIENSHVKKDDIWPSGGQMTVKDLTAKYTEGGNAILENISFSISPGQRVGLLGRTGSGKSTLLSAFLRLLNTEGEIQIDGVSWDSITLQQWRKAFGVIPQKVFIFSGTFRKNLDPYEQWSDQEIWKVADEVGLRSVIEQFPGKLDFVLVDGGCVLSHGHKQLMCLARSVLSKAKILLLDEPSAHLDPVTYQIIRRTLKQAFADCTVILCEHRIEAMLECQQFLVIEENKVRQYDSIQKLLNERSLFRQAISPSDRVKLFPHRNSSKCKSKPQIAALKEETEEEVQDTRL

[31] = system: Cystic fibrosis transmembrane conductance regulator (Homo sapiens), P13569 [F508del,G551D]; test: Potentiation of CFTR F508del/G551D mutant in human HBE cells assessed as increase in channel current at 10 nM to 1000 nM incubated for 20 mins by Ussing chamber assay; type: cell-based; settings: Primary bronchial epithelial cell, filed as activator

CL free [1]: 15.5 L/h/kg
Activity [2]: 80%
CL free [3]: 2.7 L/h/kg
solubility kinetic [4]: 75 µM (≈ 35.5 µg/mL)
EC50 [5]: < 0.00031 µM
CL free [6]: 7.2 L/h/kg
clearance [7]: 0.59 L/h/kg
Vd [8]: 5.1 L/kg
inhibition (INH) [9]: Not Active
half-life [10]: 6.7 h
Structure (SMILES): Nc1cc(S(=O)(=O)c2ccccc2OC(F)(F)F)cnc1C(=O)NC[C@@H](O)C(F)(F)F

CL free [1]: 2.7 L/h/kg
half-life [14]: 15 h
solubility thermodynamic [15]: 83 µM (≈ 34.8 µg/mL)
EC50 [17]: 0.018 µM
EC50 (Cytochrome P450 2C9): 26 µM
half-life [18]: 16 h
clearance [19]: 0.04 L/h/kg
CL free [20]: 2 L/h/kg
Activity [2]: 12%
CL free [21]: 1.7 L/h/kg
F [22]: 100%
EC50 (Cytochrome P450 3A4): > 100 µM
CL free [3]: 1.2 L/h/kg
solubility kinetic [4]: 37 µM (≈ 15.5 µg/mL)
EC50 [5]: 0.011 µM
CL free [24]: 1.3 L/h/kg
CL free [25]: 1.1 L/h/kg
CL free [6]: 2.5 L/h/kg
EC50 (Cytochrome P450 2D6): > 100 µM
Vd [26]: 2.7 L/kg
EC50 (Cytochrome P450 1A2): > 100 µM
Vd [27]: 0.8 L/kg
EC50 (Cytochrome P450 2C19): > 33 µM
clearance [7]: 0.08 L/h/kg
Vd [8]: 1.1 L/kg
clearance [28]: 0.14 L/h/kg
half-life [10]: 8.9 h
bioavailability [29]: 93%
Structure (SMILES): C[C@H](O)CNC(=O)c1ncc(S(=O)(=O)c2ccc(OC(F)(F)F)cc2)cc1N
Activity [16]: Non-Toxic
EC50 [23]: > 30 µM

CL free [1]: 5.2 L/h/kg
Activity [2]: 10%
CL free [3]: 2.2 L/h/kg
solubility kinetic [4]: < 19 µM
EC50 [5]: 0.0034 µM
CL free [6]: 3.5 L/h/kg
clearance [7]: 0.08 L/h/kg
Vd [8]: 6 L/kg
inhibition (INH) [9]: Not Active
half-life [10]: > 50 h
Structure (SMILES): Nc1cc(S(=O)(=O)c2ccc(OC(F)(F)F)cc2)cnc1C(=O)NC[C@@H](O)C(F)(F)F

More lines, now with the values behind:

Structure (SMILES): NC(=O)c1cc(S(=O)(=O)N2CCCCC2)sc1NC(=O)c1ccn[nH]1
Papp A→B [11]: 5 nm/s
efflux ratio [12]: 40
EC50 [5]: 0.013 µM
CL free [6]: 15 L/h/kg

Structure (SMILES): CC(C)(O)CNC(=O)c1ncc(S(=O)(=O)c2ccc(OC(F)(F)F)cc2)cc1N
Activity [13]: Non-Toxic
Activity [2]: 41%
solubility kinetic [4]: 37 µM (≈ 16 µg/mL)
EC50 [5]: 0.033 µM
CL free [6]: 5.6 L/h/kg
inhibition (INH) [9]: Not Active

Structure (SMILES): CN(C[C@@H](O)C(F)(F)F)C(=O)c1ncc(S(=O)(=O)c2ccc(F)cc2)cc1N
EC50 [5]: > 2 µM

Structure (SMILES): CC(C)(C)c1cc(C(C)(C)C)c(NC(=O)c2c[nH]c3ccccc3c2=O)cc1O
Activity [30]: 53%

Structure (SMILES): CN(Cc1ccccc1)S(=O)(=O)c1cc(C(N)=O)c(NC(=O)c2ccn[nH]2)s1
Papp A→B [11]: 6.5 nm/s
efflux ratio [12]: 47
EC50 [5]: 0.017 µM
Activity [31]: Active
CL free [6]: 113 L/h/kg
Activity [30]: 115%

Structure (SMILES): Nc1cc(S(=O)(=O)c2ccc(F)cc2)cnc1C(=O)N1CC(O)(C(F)(F)F)C1
EC50 [5]: 0.0011 µM
CL free [6]: 1.7 L/h/kg
